Experimental data published in PubChem BioAssay AID256 (DTP/NCI, 2004).
“And” between values parts separate entries of the source, which are not always exact repeats. Identical values can stand only once. Inconclusive results and toxic doses are left out. How the source made its calls: active means survival T/C of 150% or more; inactive means T/C below 125% in these data.

Test system: CD2F1 mice, L1210 leukemia ip, survival T/C
Experiment: NCI In Vivo Anticancer Drug Screen. Data for tumor model L1210 Leukemia (intraperitoneal) in CD2F1 (CDF1) mice
Conditions: higher = longer survival
Summary of the method: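 In this screen, transplantable tumors were grown in mice given either the compound or its vehicle. Results were expressed as the treated measurement relative to the control measurement.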

[1] = endpoint: mean survival time, dose: 25.0 mg/kg/injection, schedule: Q01DX009 (ip), vehicle: saline with Tween-80
[2] = endpoint: mean survival time, dose: 50.0 mg/kg/injection, schedule: Q04DX002 (ip), vehicle: saline with Tween-80
[3] = endpoint: mean survival time, dose: 50.0 mg/kg/injection, schedule: Q04DX003 (ip), vehicle: saline with Tween-80
[4] = endpoint: mean survival time, dose: 100.0 mg/kg/injection, schedule: Q01DX001 (ip), vehicle: saline with Tween-80
[5] = endpoint: mean survival time, dose: 100.0 mg/kg/injection, schedule: Q04DX003 (ip), vehicle: saline with Tween-80
[6] = endpoint: mean survival time, dose: 200.0 mg/kg/injection, schedule: Q01DX001 (ip), vehicle: saline with Tween-80
[7] = endpoint: mean survival time, dose: 200.0 mg/kg/injection, schedule: Q04DX003 (ip), vehicle: saline with Tween-80
[8] = endpoint: mean survival time, dose: 100.0 mg/kg/injection, schedule: Q04DX002 (ip), vehicle: saline with Tween-80
[9] = endpoint: mean survival time, dose: 200.0 mg/kg/injection, schedule: Q04DX002 (ip), vehicle: saline with Tween-80
[10] = endpoint: mean survival time, dose: 100.0 mg/kg/injection, schedule: Q04DX003 (ip), vehicle: saline
[11] = endpoint: mean survival time, dose: 200.0 mg/kg/injection, schedule: Q04DX003 (ip), vehicle: saline
[12] = endpoint: mean survival time, dose: 12.5 mg/kg/injection, schedule: Q04DX003 (ip), vehicle: saline
[13] = endpoint: mean survival time, dose: 25.0 mg/kg/injection, schedule: Q04DX003 (ip), vehicle: saline
[14] = endpoint: mean survival time, dose: 50.0 mg/kg/injection, schedule: Q04DX003 (ip), vehicle: saline
[15] = endpoint: mean survival time, dose: 50.0 mg/kg/injection, schedule: Q01DX009 (ip), vehicle: saline with Tween-80
[16] = endpoint: mean survival time, dose: 100.0 mg/kg/injection, schedule: Q01DX009 (ip), vehicle: saline with Tween-80
[17] = endpoint: mean survival time, dose: 400.0 mg/kg/injection, schedule: Q01DX009 (ip), vehicle: saline with Tween-80
[18] = endpoint: mean survival time, dose: 100.0 mg/kg/injection, schedule: Q01DX001 (ip), vehicle: Klucel (hydroxypropylcellulose) (HPC)
[19] = endpoint: mean survival time, dose: 200.0 mg/kg/injection, schedule: Q01DX001 (ip), vehicle: Klucel (hydroxypropylcellulose) (HPC)
[20] = endpoint: mean survival time, dose: 400.0 mg/kg/injection, schedule: Q01DX001 (ip), vehicle: Klucel (hydroxypropylcellulose) (HPC)

Measured: T/C

CCCCCCCCCCCCCCCCCCN1CCCN(CCCCCCCCCCCCCCCCCC)CC1
inactive: [1] 107 % of control and 111 % of control | endpoint: mean survival time, dose: 25.0 mg/kg/injection, schedule: Q04DX002 (ip), vehicle: saline with Tween-80 93 % of control and 98 % of control | endpoint: mean survival time, dose: 50.0 mg/kg/injection, schedule: Q01DX001 (ip), vehicle: saline with Tween-80 98 % of control | endpoint: mean survival time, dose: 50.0 mg/kg/injection, schedule: Q01DX009 (ip), vehicle: other 93 % of control and 95 % of control | [2] 89 % of control and 97 % of control | [3] 104 % of control | endpoint: mean survival time, dose: 100.0 mg/kg/injection, schedule: Q01DX001 (ip), vehicle: other 94 % of control | [4] 91 % of control | endpoint: mean survival time, dose: 100.0 mg/kg/injection, schedule: Q01DX009 (ip), vehicle: other 115 % of control and 101 % of control | endpoint: mean survival time, dose: 100.0 mg/kg/injection, schedule: Q04DX002 (ip), vehicle: other 94 % of control and 96 % of control | endpoint: mean survival time, dose: 100.0 mg/kg/injection, schedule: Q04DX003 (ip), vehicle: other 93 % of control | [5] 89 % of control | endpoint: mean survival time, dose: 200.0 mg/kg/injection, schedule: Q01DX001 (ip), vehicle: other 98 % of control | [6] 95 % of control | endpoint: mean survival time, dose: 200.0 mg/kg/injection, schedule: Q01DX009 (ip), vehicle: other 102 % of control and 108 % of control | endpoint: mean survival time, dose: 200.0 mg/kg/injection, schedule: Q04DX002 (ip), vehicle: other 96 % of control and 105 % of control | endpoint: mean survival time, dose: 200.0 mg/kg/injection, schedule: Q04DX003 (ip), vehicle: other 96 % of control | [7] 101 % of control | endpoint: mean survival time, dose: 400.0 mg/kg/injection, schedule: Q01DX001 (ip), vehicle: other 110 % of control | endpoint: mean survival time, dose: 400.0 mg/kg/injection, schedule: Q01DX009 (ip), vehicle: other 101 % of control and 104 % of control | endpoint: mean survival time, dose: 400.0 mg/kg/injection, schedule: Q04DX002 (ip), vehicle: other 105 % of control | endpoint: mean survival time, dose: 400.0 mg/kg/injection, schedule: Q04DX003 (ip), vehicle: other 100 % of control

COC(=O)CSC#N
inactive: endpoint: mean survival time, dose: 10.0 mg/kg/injection, schedule: Q01DX001 (ip), vehicle: saline 111 % of control | endpoint: mean survival time, dose: 20.0 mg/kg/injection, schedule: Q01DX001 (ip), vehicle: saline 107 % of control

O.O=[N+]([O-])O.[NH-]C1CCCCC1[NH-].[Pt+2] (configuration not stated)
inactive: endpoint: mean survival time, dose: 0.32 mg/kg/injection, schedule: Q04DX003 (ip), vehicle: other 113 % of control | endpoint: mean survival time, dose: 0.63 mg/kg/injection, schedule: Q04DX003 (ip), vehicle: other 119 % of control

O=C(O)c1nc2ccccc2c(=O)[nH]1
inactive: [2] 93 % of control | [4] 102 % of control | [8] 93 % of control | [6] 92 % of control | [9] 93 % of control

CCCCCCCC(C)/C=N/NC(=O)c1ccc[n+](C)c1 (configuration not stated)
inactive: [10] 103 % of control | [11] 101 % of control

C=C1C(=O)OC2/C=C(\C)CC(O)/C=C(/CO)CC(OC(=O)/C(C)=C/C)C12 (configuration not stated)
inactive: endpoint: median survival time, dose: 15.0 mg/kg/injection, schedule: Q01DX009 (ip), vehicle: saline 103 % of control | endpoint: median survival time, dose: 30.0 mg/kg/injection, schedule: Q01DX009 (ip), vehicle: saline 108 % of control | endpoint: median survival time, dose: 60.0 mg/kg/injection, schedule: Q01DX009 (ip), vehicle: saline 105 % of control | endpoint: median survival time, dose: 120.0 mg/kg/injection, schedule: Q01DX009 (ip), vehicle: saline 95 % of control

O=C(O)CC(=O)O.[NH-]CC(O)C[NH-].[Pt+2]
inactive: endpoint: median survival time, dose: 20.0 mg/kg/injection, schedule: Q04DX003 (ip), vehicle: water 96 % of control | endpoint: median survival time, dose: 40.0 mg/kg/injection, schedule: Q04DX003 (ip), vehicle: water 110 % of control

CCC[CH2][Pb]([Cl])([CH2]CCC)[CH2]CCC
inactive: endpoint: mean survival time, dose: 1.5 mg/kg/injection, schedule: Q01DX009 (ip), vehicle: saline with Tween-80 96 % of control | endpoint: mean survival time, dose: 3.0 mg/kg/injection, schedule: Q01DX009 (ip), vehicle: saline with Tween-80 96 % of control | endpoint: mean survival time, dose: 6.0 mg/kg/injection, schedule: Q01DX009 (ip), vehicle: saline with Tween-80 93 % of control | endpoint: mean survival time, dose: 6.25 mg/kg/injection, schedule: Q04DX003 (ip), vehicle: saline with Tween-80 93 % of control | endpoint: mean survival time, dose: 12.5 mg/kg/injection, schedule: Q04DX003 (ip), vehicle: saline with Tween-80 87 % of control | endpoint: mean survival time, dose: 25.0 mg/kg/injection, schedule: Q04DX003 (ip), vehicle: saline with Tween-80 93 % of control

COC1OC2COC(C)(c3ccccc3)OC2C(O)C1[NH-].COC1OC2COC(C)(c3ccccc3)OC2C(O)C1[NH-].[Cl][Pt+2][Cl] (configuration not stated)
inactive: [12] 93 % of control | [13] 96 % of control | [14] 96 % of control | [10] 95 % of control | [11] 102 % of control

O=C(CBr)c1ccc(I)cc1
inactive: endpoint: mean survival time, dose: 3.13 mg/kg/injection, schedule: Q04DX003 (ip), vehicle: saline 94 % of control | endpoint: mean survival time, dose: 6.25 mg/kg/injection, schedule: Q04DX003 (ip), vehicle: saline 98 % of control | [12] 94 % of control | [13] 98 % of control | [14] 98 % of control | [10] 106 % of control

O=C1C(=O)c2ccccc2-c2ccccc21
inactive: [15] 98 % of control | [16] 102 % of control

Cc1ccc(NC(=S)NC(=O)/C=C/c2ccccc2)cc1Cl
inactive: [2] 95 % of control and 97 % of control | [8] 91 % of control and 97 % of control | [9] 93 % of control and 94 % of control

O=C(CNC(=O)c1ccccc1)N/N=C/c1cccc([N+](=O)[O-])c1
inactive: [16] 90 % of control | [17] 89 % of control

CCCCCCCCP(=O)(N1CC1C)N1CC1C (configuration not stated)
inactive: endpoint: mean survival time, dose: 6.25 mg/kg/injection, schedule: Q01DX009 (ip), vehicle: saline 98 % of control | endpoint: mean survival time, dose: 12.5 mg/kg/injection, schedule: Q01DX009 (ip), vehicle: saline 94 % of control | endpoint: mean survival time, dose: 25.0 mg/kg/injection, schedule: Q01DX009 (ip), vehicle: saline 96 % of control | endpoint: mean survival time, dose: 50.0 mg/kg/injection, schedule: Q01DX009 (ip), vehicle: saline 102 % of control

C/C(CCC(=O)O)=N\NC(N)=O
inactive: [16] 97 % of control | [5] 95 % of control | endpoint: mean survival time, dose: 200.0 mg/kg/injection, schedule: Q01DX009 (ip), vehicle: saline with Tween-80 97 % of control | [7] 90 % of control | [17] 93 % of control

C[n+]1c(/C=C/c2ccccc2Cl)ccc2ccccc21
inactive: endpoint: mean survival time, dose: 12.5 mg/kg/injection, schedule: Q01DX009 (ip), vehicle: saline with Tween-80 94 % of control | [1] 100 % of control | [15] 96 % of control | [3] 95 % of control

CCOC(=O)Nc1cc(NCC(=O)CCc2ccccc2)c([N+](=O)[O-])c(N)n1
inactive: [18] 93 % of control | [19] 91 % of control | [20] 91 % of control

O=C(O)CCC(NC(=O)c1ccccc1)C(=O)O (configuration not stated)
inactive: [18] 96 % of control | [19] 96 % of control | [20] 100 % of control
